According to patent publication US20240132492A1, “PYRIDOPYRIMIDINE-BASED COMPOUND AND APPLICATION THEREOF” (JINAN UNIVERSITY, priority 2021, published 2024):

Assays:
Assay type in all cases: cell-based
AKT1 = molecular target: T1, AKT1 (Homo sapiens, UniProt P31749); experiment: Western Blot, degradation of AKT1 protein in H1975-OR cells; settings: 24 hours, maximum degradation rate; for Dmax at 1 µM: 1000 nM
T1 construct: AKT1, AKT2, and AKT3 proteins in H1975-OR cells; endogenous in cells; host or cells: H1975-OR (osimertinib-resistant H1975)
Protocol: (§1) Cell line: Non-small cell lung cancer H1975-OR cell line, which is an Osimertinib resistant H1975 cell line, and could be obtained through low dose gradual addition culture. Specific method: H1975 cells were spread in a 10 cm culture dish at a convergence rate of 60-70%, added 50 nM of Osimertinib to the culture medium. After the cell state stabilized, the concentration of Osimertinib was gradually double to 3 μM.
(§2) Conventional Western Blot (immunoblotting) was used for detection, as follows: a certain number of H1975-OR cells were planted on a 96 well plate, adherent cultured in an incubator overnight, and added a certain concentration of compound to act for 24 hours. 1×SDS lysis buffer with protease and phosphatase inhibitors was used to lyse cells. Cell lysates were separated by SDS-PAGE and transferred to PVDF membrane. Then, at room temperature, the PCDF membrane was taken out and immersed in a sealing solution (5% BSA TBS solution containing 0.5% Tween-20) for sealing treatment for 1 hour, and then incubated with a specific primary antibody at 4° C. overnight. The imprints were washed with TBST and incubated with horseradish peroxidase (HRP) labeled secondary antibodies at room temperature for 2 hours. Finally, ECL plus fluorescence detection reagent (Thermo Scientific, Waltham, MA) was used for protein development, and the Amersham Imager 600 system (GE, America) was used for photography. The detection results were processed using ImageJ software to obtain the grayscale value G (Density).

AKT2 = molecular target: T2, AKT2 (Homo sapiens, UniProt P31751); experiment: Western Blot, degradation of AKT2 protein in H1975-OR cells; settings: 24 hours, maximum degradation rate; for Dmax at 1 µM: 1000 nM
T2 construct: AKT1, AKT2, and AKT3 proteins in H1975-OR cells; endogenous in cells; host or cells: H1975-OR (osimertinib-resistant H1975)
Protocol: as §1, §2

H1975 = experiment: CCK-8 tumor cell proliferation, H1975; settings: 72 hours
Protocol: (§3) Tumor cells (see Table 2 to Table 5) were inoculated in 96-well plates in complete culture medium (2000-3000 cells/well). After overnight incubation, the compounds with different concentrations (0.000508 μM-10 μM) were used to treat the cells separately for 72 hours. CCK-8 (Cell Counting Kit 8, Dojindo Laboratories, Kumamoto, Japan) experiment was used to evaluate cell proliferation. GraphPad Prism 5.0 software (La Jolla, CA) was used to calculate the half-maximal inhibitory concentration (IC50) values by fitting the concentration response curve. Each IC50 value was represented as an average value±SD.

H1975OR = experiment: CCK-8 tumor cell proliferation, H1975OR; settings: H1975OR cells (Osimertinib resistant), 72 hours
Protocol: as §1, §3

PC-9 = experiment: CCK-8 tumor cell proliferation, PC-9; settings: PC-9 cells, 72 hours
Protocol: as §3

A431 = experiment: CCK-8 tumor cell proliferation, A431; settings: 72 hours
Protocol: as §3

HCC827 = experiment: CCK-8 tumor cell proliferation, HCC827; settings: HCC827 cells, 72 hours
Protocol: as §3

H1299 = experiment: CCK-8 tumor cell proliferation, H1299; settings: 72 hours
Protocol: as §3

AKT3 = AKT3 (Homo sapiens, UniProt Q9Y243); experiment: Western Blot, degradation of AKT3 protein in H1975-OR cells; set-up: endogenous in cells; host or cells: H1975-OR (osimertinib-resistant H1975); settings: 24 hours, maximum degradation rate; for Dmax at 1 µM: 1000 nM
Protocol: as §1, §2

[1] = Homo sapiens, NCI-H1975, H1975 cells
[2] = Homo sapiens, A-431, A431 cells
[3] = Homo sapiens, NCI-H1299, H1299 cells

Sequence of AKT3 (Q9Y243 whole entry): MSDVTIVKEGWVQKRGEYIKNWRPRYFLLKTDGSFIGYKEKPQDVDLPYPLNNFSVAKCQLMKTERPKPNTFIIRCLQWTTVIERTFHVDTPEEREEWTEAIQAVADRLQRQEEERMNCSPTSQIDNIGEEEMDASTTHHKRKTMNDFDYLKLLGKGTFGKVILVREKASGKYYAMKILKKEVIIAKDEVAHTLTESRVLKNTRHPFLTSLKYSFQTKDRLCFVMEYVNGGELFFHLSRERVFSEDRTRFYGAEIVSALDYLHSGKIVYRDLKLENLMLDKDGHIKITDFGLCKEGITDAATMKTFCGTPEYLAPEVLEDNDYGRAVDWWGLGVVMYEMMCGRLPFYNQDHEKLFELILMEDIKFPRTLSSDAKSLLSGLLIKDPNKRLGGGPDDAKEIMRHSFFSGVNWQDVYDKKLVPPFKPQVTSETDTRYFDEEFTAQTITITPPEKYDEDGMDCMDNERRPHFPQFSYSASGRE
T1 sequence (P31749 whole entry): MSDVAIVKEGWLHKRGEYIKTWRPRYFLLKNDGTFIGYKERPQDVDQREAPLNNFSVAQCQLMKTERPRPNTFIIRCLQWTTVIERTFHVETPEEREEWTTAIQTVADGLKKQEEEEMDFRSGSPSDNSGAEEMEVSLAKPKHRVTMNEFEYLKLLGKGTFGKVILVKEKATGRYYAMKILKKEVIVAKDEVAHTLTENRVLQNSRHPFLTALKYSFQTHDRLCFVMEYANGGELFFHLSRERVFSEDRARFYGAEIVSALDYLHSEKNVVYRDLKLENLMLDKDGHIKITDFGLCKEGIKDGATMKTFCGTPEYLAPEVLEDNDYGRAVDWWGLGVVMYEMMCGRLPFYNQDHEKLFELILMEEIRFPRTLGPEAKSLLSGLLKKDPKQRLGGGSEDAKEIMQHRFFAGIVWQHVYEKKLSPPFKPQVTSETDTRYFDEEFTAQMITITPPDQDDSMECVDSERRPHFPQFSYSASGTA
T2 sequence (P31751 whole entry): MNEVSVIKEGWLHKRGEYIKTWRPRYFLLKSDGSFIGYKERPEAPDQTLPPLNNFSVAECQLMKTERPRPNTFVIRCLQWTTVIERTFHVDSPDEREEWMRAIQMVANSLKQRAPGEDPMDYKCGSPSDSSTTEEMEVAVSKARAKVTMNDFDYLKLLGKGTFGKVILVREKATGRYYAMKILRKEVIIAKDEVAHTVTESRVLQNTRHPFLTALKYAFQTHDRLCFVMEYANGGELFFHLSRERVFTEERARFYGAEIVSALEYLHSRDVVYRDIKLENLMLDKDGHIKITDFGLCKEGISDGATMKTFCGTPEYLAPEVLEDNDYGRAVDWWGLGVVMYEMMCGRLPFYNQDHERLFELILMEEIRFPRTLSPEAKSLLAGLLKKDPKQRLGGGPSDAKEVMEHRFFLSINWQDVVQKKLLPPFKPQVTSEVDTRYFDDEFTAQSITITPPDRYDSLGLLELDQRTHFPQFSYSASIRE

Dmax at 1 µM (AKT1)	Dmax at 1 µM (AKT2)	IC50 (H1975; [1])	IC50 (H1975OR)	IC50 (PC-9; Homo sapiens)	IC50 (A431; [2])	IC50 (HCC827; Homo sapiens)	IC50 (H1299; [3])	Dmax at 1 µM (AKT3)	SMILES	Dmax (%) at 1000 nM AKT1 (AKT1)	Dmax (%) at 1000 nM AKT2 (AKT2)	IC50 (H1975; H1975 cells)	IC50 (PC-9)	IC50 (A431; A431 cells)	IC50 (HCC827)	IC50 (H1299; H1299 cells)	Dmax (%) at 1000 nM AKT3 (AKT3)
59.2%	27.2%	3.27 ± 0.598 µM	2.01 ± 0.444 µM	1.57 ± 0.258 µM	0.541 ± 0.0589 µM	0.141 ± 0.0372 µM	10.4 ± 1.72 µM	67.6%	C=CC(=O)Nc1cccc(-n2c(=O)cc(C)c3cnc(Nc4ccc(N5CCN(CCOCCOCCNC(=O)CC67CC8CC(CC(C8)C6)C7)CC5)cc4OC)nc32)c1 [ZX-HYT-01]	–	–	–	–	–	–	–	–
0%	0%	0.194 ± 0.063 µM	0.167 ± 0.025 µM	0.255 ± 0.0394 µM	0.102 ± 0.0095 µM	0.105 ± 0.00819 µM	8.74 ± 1.12 µM	30.8%	C=CC(=O)Nc1cccc(-n2c(=O)cc(C)c3cnc(Nc4ccc(N5CCN(CCCCCCNC(=O)CC67CC8CC(CC(C8)C6)C7)CC5)cc4OC)nc32)c1 [ZX-HYT-02, N-(3-(2-((4-(4-(6-(2-(((3R, 5R, 7R)-adamantan-1-yl)acetamido)hexyl)piperazin-1-yl)-2-methoxyphenyl)amino)-5-methyl-7-oxypyridino [2,3-d]pyrimidin-8 (7H)-yl)phenyl)acrylamide]	–	–	–	–	–	–	–	–
78.9%	64.8%	0.844 ± 0.822 µM	0.074 ± 0.004 µM	0.0536 ± 0.00753 µM	0.0299 ± 0.0028 µM	0.0954 ± 0.0331 µM	0.876 ± 0.283 µM	89.1%	C=CC(=O)Nc1cccc(-n2c(=O)cc(C)c3cnc(Nc4ccc(N5CCN(CCCCCCCCNC(=O)CC67CC8CC(CC(C8)C6)C7)CC5)cc4OC)nc32)c1 [ZX-HYT-03, N-(3-(2-((4-(4-(8-(2-(((3R, 5R, 7R)-adamantan-1-yl)acetamido)octyl)piperazin-1-yl)-2-methoxyphenyl)amino)-5-methyl-7-oxypyridino [2,3-d]pyrimidin-8 (7H)-yl)phenyl)acrylamide]	–	–	–	–	–	–	–	–
0%	0%	1.77 ± 0.187 µM	0.083 ± 0.019 µM	0.0181 ± 0.00105 µM	0.0102 ± 0.002 µM	0.0555 ± 0.0327 µM	0.305 ± 0.166 µM	26.6%	C=CC(=O)Nc1cccc(-n2c(=O)cc(C)c3cnc(Nc4ccc(N5CCN(CCCCCCCCCCNC(=O)CC67CC8CC(CC(C8)C6)C7)CC5)cc4OC)nc32)c1 [ZX-HYT-04, N-(3-(2-((4-(4-(10-(2-(((3R, 5R, 7R)-adamantan-1-yl)acetylamino)decyl)piperazin-1-yl)-2-methoxyphenyl)amino)-5-methyl-7-oxypyridino [2,3-d]pyrimidin-8 (7H)-yl)phenyl)acrylamide]	–	–	–	–	–	–	–	–
34.4%	29.9%	5.19 ± 4.59 µM	0.009 ± 0.002 µM	0.0083 ± 0.000333 µM	0.00806 ± 0.0003 µM	0.126 ± 0.0216 µM	0.338 ± 0.0855 µM	71.9%	C=CC(=O)Nc1cccc(-n2c(=O)cc(C)c3cnc(Nc4ccc(N5CCN(CCCCCCCCCCCCNC(=O)CC67CC8CC(CC(C8)C6)C7)CC5)cc4OC)nc32)c1 [ZX-HYT-05, N-(3-(2-((4-(4-(12-(2-(((3R, 5R, 7R)-adamantan-1-yl)acetylamino)dodecyl)piperazin-1-yl)-2-methoxyphenyl)amino)-5-methyl-7-oxypyridino [2,3-d]pyrimidin-8 (7H)-yl)phenyl)acrylamide]	–	–	–	–	–	–	–	–
0%	47%	0.837 ± 0.11 µM	0.125 ± 0.012 µM	0.0732 ± 0.00431 µM	0.26 ± 0.047 µM	0.163 ± 0.0134 µM	0.163 ± 0.0134 µM	62.9%	C=CC(=O)Nc1cccc(-n2c(=O)cc(C)c3cnc(Nc4ccc(N5CCN(CCCCCCCCCCCCCCNC(=O)CC67CC8CC(CC(C8)C6)C7)CC5)cc4OC)nc32)c1 [ZX-HYT-06, N-(3-(2-((4-(4-(14-(2-((3R, 5R, 7R)-adamantan-1-yl)acetylamino)tetradecyl)piperazin-1-yl)-2-methoxyphenyl)amino)-5-methyl-7-oxypyridino [2,3-d]pyrimidin-8 (7H)-yl)phenyl) acrylamide]	–	–	–	–	–	–	–	–
0%	0%	8.47 µM	0.0107 ± 0.003 µM	0.109 ± 0.019 µM	0.00986 ± 0.0022 µM	0.157 ± 0.0679 µM	0.212 ± 0.0153 µM	66.8%	CCC(=O)Nc1cccc(-n2c(=O)cc(C)c3cnc(Nc4ccc(N5CCN(CCCCCCCCCCCCNC(=O)CC67CC8CC(CC(C8)C6)C7)CC5)cc4OC)nc32)c1 [ZX-HYT-08, N-(3-(2-((4-(4-(12-(2-((3R, 5R, 7R)-adamantan-1-yl)acetylamino)dodecyl)piperazin-1-yl)-2-methoxyphenyl)amino)-5-methyl-7-oxypyridino [2,3-d]pyrimidin-8 (7H)-yl)phenyl) propionamide]	–	–	–	–	–	–	–	–
0%	0%	0.119 ± 0.0112 µM	0.0236 ± 0.00351 µM	0.215 ± 0.0636 µM	0.0106 ± 0.002 µM	0.134 ± 0.064 µM	0.624 ± 0.0448 µM	75.7%	COc1cc(N2CCN(CCCCCCCCCCCCNC(=O)CC34CC5CC(CC(C5)C3)C4)CC2)ccc1Nc1ncc2c(C)cc(=O)n(-c3cccc(NC(C)=O)c3)c2n1 [ZX-HYT-09, N-(12-(4-(4-((8-(3-acetylaminophenyl)-5-methyl-7-oxy-7,8-dihydropyridino [2,3-d]pyrimidin-2-yl]amino)-3-methoxyphenyl)piperazin-1-yl)dodecyl)-2-((3R, 5R, 7R)-adamantan-1-yl) acetamide]	–	–	–	–	–	–	–	–
0%	25.3%	0.142 ± 0.0494 µM	0.0196 ± 0.00141 µM	0.126 ± 0.0177 µM	0.0517 µM	0.309 ± 0.139 µM	1.81 ± 0.395 µM	57.1%	COc1cc(N2CCN(CCCCCCCCCCCCNC(=O)CC34CC5CC(CC(C5)C3)C4)CC2)ccc1Nc1ncc2c(C)cc(=O)n(-c3cccc(NC(=O)C(C)C)c3)c2n1 [ZX-HYT-10, N-(3-(2-((4-(4-(12-(2-(((3R, 5R, 7R)-adamantan-1-yl)acetylamino)dodecyl)piperazin-1-yl)-2-methoxyphenyl)amino)-5-methyl-7-oxypyridino [2,3-d]pyrimidin-8 (7H)-yl)phenyl)isobutylamide]	–	–	–	–	–	–	–	–
–	–	> 10 µM	> 10 µM	> 10 µM	> 10 µM	> 10 µM	> 10 µM	–	C=CC(=O)Nc1ccc(-n2c(=O)cc(C)c3cnc(Nc4ccc(N5CCN(CCCCCCCCCCCCNC(=O)CC67CC8CC(CC(C8)C6)C7)CC5)cc4OC)nc32)cc1 [ZX-HYT-14, N-(4-(2-((4-(4-(12-(2-(((3R, 5R, 7R)-adamantan-1-yl)acetylamino)dodecyl)piperazin-1-yl)-2-methoxyphenyl)amino)-5-methyl-7-oxypyridino [2,3-d]pyrimidin-8 (7H)-yl)phenyl)acrylamide]	–	–	–	–	–	–	–	–
–	–	> 10 µM	> 10 µM	4.8 ± 0.501 µM	> 10 µM	> 10 µM	> 10 µM	–	COc1cc(N2CCN(CCCCCCCCCCCCNC(=O)CC34CC5CC(CC(C5)C3)C4)CC2)ccc1Nc1ncc2c(C)cc(=O)n(-c3ccc(NC(=O)C4CC4)cc3)c2n1 [ZX-HYT-15, N-(4-(2-((4-(4-(12-(2-(((3R, 5R, 7R)-adamantan-1-yl)acetylamino)dodecyl)piperazin-1-yl)-2-methoxyphenyl)amino)-5-methyl-7-oxypyridino [2,3-d]pyrimidin-8 (7H)-yl)phenyl)cyclopropane formamide]	–	–	–	–	–	–	–	–

SMILES	Dmax at 1 µM (AKT1)	Dmax at 1 µM (AKT2)	IC50 (H1975; [1])	IC50 (H1975OR)	IC50 (PC-9; Homo sapiens)	IC50 (A431; [2])	IC50 (HCC827; Homo sapiens)	IC50 (H1299; [3])	Dmax at 1 µM (AKT3)	Dmax (%) at 1000 nM AKT1 (AKT1)	Dmax (%) at 1000 nM AKT2 (AKT2)	IC50 (H1975; H1975 cells)	IC50 (PC-9)	IC50 (A431; A431 cells)	IC50 (HCC827)	IC50 (H1299; H1299 cells)	Dmax (%) at 1000 nM AKT3 (AKT3)
C=CC(=O)Nc1cccc(-n2c(=O)cc(C)c3cnc(Nc4ccc(N5CCN(C(=O)CCCCCCCCCCCNC(=O)CC67CC8CC(CC(C8)C6)C7)CC5)cc4OC)nc32)c1 [ZX-HYT-07, N-(3-(2-((4-(4-(12-(2-((3R, 5R, 7R)-adamantan-1-yl)acetylamino)dodecanoyl)piperazin-1-yl)-2-methoxyphenyl)amino)-5-methyl-7-oxypyridino [2,3-d]pyrimidin-8 (7H)-yl)phenyl) acrylamide]	–	–	–	0.417 ± 0.08 µM	–	–	–	–	–	0%	0%	5.07 ± 0.836 µM	6.79 ± 3.6 µM	0.0839 ± 0.0133 µM	0.882 ± 0.0945 µM	1.46 ± 0.428 µM	69.2%
